According to article PMC6199744, “Development of Chemical Proteomics for the Folateome and Analysis of the Kinetoplastid Folateome” (ACS Infectious Diseases, 2018):
Like-named read-outs stand apart in the source and are kept apart here.

How the values were obtained:
Type in all cases: binding
[1] = target: T1, HeLa cell extract proteins (Homo sapiens, UniProt Q14746); conditions: captured protein COG2; HeLa
T1 construct: endogenous in cells; host or cells: HeLa cell extract
T1 sequence (Q14746 1-738): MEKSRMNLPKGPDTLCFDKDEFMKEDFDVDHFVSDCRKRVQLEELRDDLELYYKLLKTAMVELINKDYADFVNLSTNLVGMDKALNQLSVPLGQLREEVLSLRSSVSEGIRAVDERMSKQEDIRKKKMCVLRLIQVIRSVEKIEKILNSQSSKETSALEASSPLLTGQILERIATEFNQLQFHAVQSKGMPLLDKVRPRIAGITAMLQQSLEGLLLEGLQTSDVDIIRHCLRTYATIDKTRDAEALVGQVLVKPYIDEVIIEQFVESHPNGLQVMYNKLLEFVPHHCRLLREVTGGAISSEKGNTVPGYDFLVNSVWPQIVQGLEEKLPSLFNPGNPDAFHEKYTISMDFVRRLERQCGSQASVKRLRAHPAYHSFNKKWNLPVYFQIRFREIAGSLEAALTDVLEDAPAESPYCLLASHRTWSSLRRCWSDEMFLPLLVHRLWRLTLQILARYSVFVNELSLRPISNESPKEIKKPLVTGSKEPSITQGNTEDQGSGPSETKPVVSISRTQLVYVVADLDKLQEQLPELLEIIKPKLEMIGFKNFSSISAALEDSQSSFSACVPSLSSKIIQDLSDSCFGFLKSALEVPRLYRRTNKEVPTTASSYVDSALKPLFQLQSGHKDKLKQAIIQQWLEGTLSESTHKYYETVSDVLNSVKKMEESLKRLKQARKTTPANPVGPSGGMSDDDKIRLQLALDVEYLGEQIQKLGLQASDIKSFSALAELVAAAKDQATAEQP

[2] = target: T2, HeLa cell extract proteins (Homo sapiens, UniProt P51570)
T2 construct: endogenous in cells; host or cells: HeLa cell extract
T2 sequence (P51570 whole entry): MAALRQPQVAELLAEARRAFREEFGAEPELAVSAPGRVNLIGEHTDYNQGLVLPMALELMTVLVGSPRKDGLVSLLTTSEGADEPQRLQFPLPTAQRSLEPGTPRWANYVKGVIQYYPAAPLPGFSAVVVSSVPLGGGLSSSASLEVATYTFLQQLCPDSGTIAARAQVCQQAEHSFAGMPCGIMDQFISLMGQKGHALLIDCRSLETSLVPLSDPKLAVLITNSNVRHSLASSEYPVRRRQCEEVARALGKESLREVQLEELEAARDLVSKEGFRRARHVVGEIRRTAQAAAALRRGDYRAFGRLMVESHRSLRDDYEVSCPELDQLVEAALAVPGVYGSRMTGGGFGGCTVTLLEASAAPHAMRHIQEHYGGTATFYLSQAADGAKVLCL

[3] = target: T3, HeLa cell extract proteins (Homo sapiens, UniProt P60510)
T3 construct: endogenous in cells; host or cells: HeLa cell extract
T3 sequence (P60510 1-307): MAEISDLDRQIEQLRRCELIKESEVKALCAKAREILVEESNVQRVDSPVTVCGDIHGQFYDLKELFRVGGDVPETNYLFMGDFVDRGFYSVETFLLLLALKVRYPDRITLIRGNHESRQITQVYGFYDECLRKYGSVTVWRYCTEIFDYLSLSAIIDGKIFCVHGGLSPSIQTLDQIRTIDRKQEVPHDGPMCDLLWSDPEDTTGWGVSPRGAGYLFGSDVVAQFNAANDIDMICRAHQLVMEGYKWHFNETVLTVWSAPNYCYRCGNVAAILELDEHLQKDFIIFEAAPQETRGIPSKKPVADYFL

[4] = target: T4, HeLa cell extract proteins (Homo sapiens, UniProt Q9NNW5)
T4 construct: endogenous in cells; host or cells: HeLa cell extract
T4 sequence (Q9NNW5 1-1121): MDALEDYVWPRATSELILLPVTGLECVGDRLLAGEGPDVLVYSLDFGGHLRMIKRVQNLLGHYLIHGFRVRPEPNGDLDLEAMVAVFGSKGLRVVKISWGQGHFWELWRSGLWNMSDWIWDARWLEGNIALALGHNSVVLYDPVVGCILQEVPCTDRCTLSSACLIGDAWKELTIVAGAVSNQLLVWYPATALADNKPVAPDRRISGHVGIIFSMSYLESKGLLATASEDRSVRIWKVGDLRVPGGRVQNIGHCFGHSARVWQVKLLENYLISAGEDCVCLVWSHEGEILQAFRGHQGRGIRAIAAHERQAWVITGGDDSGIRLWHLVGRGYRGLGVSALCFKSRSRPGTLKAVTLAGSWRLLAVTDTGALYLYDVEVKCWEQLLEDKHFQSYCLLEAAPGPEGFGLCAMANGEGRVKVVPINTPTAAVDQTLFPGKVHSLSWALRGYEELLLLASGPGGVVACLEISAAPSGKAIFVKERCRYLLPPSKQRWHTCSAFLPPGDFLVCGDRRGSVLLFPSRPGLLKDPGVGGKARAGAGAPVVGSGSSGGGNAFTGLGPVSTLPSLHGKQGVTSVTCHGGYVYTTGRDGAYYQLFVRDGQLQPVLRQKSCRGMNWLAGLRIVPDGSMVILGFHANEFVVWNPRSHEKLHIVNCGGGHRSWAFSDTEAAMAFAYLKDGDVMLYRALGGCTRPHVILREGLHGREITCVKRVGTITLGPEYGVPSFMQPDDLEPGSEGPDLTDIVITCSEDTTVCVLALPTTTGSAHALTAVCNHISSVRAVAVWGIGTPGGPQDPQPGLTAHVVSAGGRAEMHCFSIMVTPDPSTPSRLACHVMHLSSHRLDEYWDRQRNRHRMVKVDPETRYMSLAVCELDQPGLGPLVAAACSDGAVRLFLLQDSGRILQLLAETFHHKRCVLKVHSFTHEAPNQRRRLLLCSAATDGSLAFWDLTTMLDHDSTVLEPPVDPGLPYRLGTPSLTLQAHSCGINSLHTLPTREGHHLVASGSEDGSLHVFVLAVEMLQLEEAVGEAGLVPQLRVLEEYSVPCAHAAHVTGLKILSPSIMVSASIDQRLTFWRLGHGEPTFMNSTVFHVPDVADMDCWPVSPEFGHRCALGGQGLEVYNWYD

[5] = target: T5, HeLa cell extract proteins (Homo sapiens, UniProt P48163)
T5 construct: endogenous in cells; host or cells: HeLa cell extract
T5 sequence (P48163 1-572): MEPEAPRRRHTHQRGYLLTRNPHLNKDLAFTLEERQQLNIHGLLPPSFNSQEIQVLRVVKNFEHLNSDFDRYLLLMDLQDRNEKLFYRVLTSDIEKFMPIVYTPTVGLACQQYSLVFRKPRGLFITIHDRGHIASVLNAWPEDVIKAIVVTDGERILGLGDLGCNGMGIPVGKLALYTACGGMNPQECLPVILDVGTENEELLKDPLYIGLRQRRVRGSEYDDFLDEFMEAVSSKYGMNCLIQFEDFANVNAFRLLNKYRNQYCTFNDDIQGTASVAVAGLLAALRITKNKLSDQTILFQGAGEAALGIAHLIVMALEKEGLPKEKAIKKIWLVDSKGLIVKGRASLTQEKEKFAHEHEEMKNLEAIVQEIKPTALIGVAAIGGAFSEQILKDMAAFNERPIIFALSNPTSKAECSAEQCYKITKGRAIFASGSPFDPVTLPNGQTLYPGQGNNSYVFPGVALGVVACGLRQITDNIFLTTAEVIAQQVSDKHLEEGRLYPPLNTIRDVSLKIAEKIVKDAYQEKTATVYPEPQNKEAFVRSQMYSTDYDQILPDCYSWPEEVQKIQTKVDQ

[6] = target: T6, HeLa cell extract proteins (Homo sapiens, UniProt Q96JI7)
T6 construct: endogenous in cells; host or cells: HeLa cell extract
T6 sequence (Q96JI7 whole entry): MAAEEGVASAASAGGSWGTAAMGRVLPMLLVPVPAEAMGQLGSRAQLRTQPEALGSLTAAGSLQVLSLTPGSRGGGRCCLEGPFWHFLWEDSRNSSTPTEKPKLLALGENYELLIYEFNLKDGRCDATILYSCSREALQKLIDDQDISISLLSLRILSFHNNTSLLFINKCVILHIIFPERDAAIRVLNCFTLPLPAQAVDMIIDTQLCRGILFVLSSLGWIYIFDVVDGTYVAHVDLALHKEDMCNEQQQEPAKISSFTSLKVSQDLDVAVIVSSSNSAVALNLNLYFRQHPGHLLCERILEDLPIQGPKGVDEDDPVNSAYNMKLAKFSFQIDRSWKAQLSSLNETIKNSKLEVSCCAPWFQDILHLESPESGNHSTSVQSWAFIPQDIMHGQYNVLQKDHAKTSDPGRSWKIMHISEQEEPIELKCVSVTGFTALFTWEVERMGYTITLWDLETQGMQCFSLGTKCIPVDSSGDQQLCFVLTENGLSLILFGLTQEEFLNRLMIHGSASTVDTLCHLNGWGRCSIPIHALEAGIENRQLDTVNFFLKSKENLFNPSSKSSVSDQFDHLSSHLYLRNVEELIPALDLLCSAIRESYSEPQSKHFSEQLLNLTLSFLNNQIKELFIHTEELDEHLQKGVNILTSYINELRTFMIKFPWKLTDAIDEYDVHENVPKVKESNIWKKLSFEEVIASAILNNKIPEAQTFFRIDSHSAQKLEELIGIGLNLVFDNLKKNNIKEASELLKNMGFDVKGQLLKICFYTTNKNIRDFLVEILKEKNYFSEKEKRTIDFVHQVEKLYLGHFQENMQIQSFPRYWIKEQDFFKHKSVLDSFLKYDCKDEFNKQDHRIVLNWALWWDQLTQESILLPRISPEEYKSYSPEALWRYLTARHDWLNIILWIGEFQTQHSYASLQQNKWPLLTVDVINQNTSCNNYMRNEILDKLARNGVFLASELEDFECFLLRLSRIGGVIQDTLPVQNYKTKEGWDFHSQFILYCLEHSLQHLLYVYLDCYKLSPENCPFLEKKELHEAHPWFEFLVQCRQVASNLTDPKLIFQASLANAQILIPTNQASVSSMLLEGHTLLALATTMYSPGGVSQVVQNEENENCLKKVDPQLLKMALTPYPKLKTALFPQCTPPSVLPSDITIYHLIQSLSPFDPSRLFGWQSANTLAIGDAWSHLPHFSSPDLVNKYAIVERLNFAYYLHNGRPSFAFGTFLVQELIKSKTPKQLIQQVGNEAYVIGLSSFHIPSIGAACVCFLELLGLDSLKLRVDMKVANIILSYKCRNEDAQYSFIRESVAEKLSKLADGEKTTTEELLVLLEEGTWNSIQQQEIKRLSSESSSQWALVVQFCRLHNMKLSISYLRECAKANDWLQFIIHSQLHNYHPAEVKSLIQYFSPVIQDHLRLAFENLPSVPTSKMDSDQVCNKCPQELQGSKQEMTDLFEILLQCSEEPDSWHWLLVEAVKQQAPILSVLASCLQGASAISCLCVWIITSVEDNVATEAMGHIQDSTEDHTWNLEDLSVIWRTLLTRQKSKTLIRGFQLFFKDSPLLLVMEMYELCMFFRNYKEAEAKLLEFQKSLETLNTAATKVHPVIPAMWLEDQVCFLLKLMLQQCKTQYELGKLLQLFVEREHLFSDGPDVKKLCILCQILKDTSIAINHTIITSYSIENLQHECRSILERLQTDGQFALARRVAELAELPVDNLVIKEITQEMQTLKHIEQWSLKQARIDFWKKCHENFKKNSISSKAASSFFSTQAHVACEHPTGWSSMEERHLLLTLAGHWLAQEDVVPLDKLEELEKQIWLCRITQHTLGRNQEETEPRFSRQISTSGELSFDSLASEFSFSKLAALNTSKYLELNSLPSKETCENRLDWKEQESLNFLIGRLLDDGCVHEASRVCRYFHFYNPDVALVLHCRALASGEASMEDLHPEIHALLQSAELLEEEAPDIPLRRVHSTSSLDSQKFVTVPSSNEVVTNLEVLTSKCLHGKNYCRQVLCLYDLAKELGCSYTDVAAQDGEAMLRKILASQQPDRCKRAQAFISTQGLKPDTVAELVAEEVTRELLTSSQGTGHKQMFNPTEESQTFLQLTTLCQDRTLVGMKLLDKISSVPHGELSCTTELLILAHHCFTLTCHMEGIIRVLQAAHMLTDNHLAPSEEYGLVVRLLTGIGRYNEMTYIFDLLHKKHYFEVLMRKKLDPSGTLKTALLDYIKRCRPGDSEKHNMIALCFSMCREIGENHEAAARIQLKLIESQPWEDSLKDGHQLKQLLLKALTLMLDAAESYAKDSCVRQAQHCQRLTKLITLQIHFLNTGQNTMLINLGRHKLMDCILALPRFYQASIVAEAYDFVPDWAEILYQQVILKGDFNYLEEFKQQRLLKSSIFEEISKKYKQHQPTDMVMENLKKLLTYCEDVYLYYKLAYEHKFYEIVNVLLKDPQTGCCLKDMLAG

[7] = target: T7, HeLa cell extract proteins (Homo sapiens, UniProt O76071)
T7 construct: endogenous in cells; host or cells: HeLa cell extract
T7 sequence (O76071 whole entry): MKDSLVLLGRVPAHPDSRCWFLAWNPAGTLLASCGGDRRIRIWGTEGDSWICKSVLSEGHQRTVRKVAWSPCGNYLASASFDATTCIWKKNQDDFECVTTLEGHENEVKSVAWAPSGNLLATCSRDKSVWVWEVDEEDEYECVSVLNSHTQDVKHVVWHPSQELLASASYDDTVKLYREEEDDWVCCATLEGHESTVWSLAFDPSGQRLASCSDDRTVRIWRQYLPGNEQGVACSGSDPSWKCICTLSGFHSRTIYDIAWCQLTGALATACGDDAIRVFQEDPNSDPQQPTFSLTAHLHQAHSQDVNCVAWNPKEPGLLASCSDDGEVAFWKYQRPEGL

[8] = HeLa, protein GALK1 (CDNA FLJ56840, HIGHLY SIMILAR TO GALACTOKINASE)

| Structure (SMILES) | fold changes relative to vehicle control [1] | fold changes relative to vehicle control [2, 8] | fold changes relative to vehicle control ([3]; protein PPP4C, HeLa) | fold changes relative to vehicle control ([4]; HeLa, protein WDR6) | fold changes relative to vehicle control ([5]; protein ME1, HeLa) | fold changes relative to vehicle control ([6]; protein SPG11, HeLa) | fold changes relative to vehicle control ([7]; HeLa, protein CIAO1) | also measured |
| --- | --- | --- | --- | --- | --- | --- | --- | --- |
| Nc1nc2cccc(-c3ccccc3)c2n1Cc1ccc(Cl)c(Cl)c1 [compound 3] | 0.82 |  |  |  |  |  |  |  |
| NCCOCCOCC(=O)Nc1nc2ncc(CNc3ccc(C(=O)NC(CCC(=O)O)C(=O)O)cc3)nc2c(=O)[nH]1 (stereo not drawn) [compound 6] |  | 1.12 | 0.95 | 1.19 | 1.02 | 1.86 | 0.93 |  |
| Nc1nc2[nH]cc(CCc3ccc(C(=O)N[C@@H](CCC(=O)O)C(=O)O)cc3)c2c(=O)[nH]1 [PTX, pemetrexed] |  |  |  |  |  |  |  | fold changes relative to vehicle control [2]: 1.27; fold changes relative to vehicle control [3]: 0.95; fold changes relative to vehicle control [4]: 1.1; fold changes relative to vehicle control [5]: 0.84; fold changes relative to vehicle control [6]: 1.38; fold changes relative to vehicle control [7]: 0.86 |
| Nc1nc2c(c(=O)[nH]1)N(C=O)C(CNc1ccc(C(=O)N[C@@H](CCC(=O)O)C(=O)O)cc1)CN2 (stereo partly drawn) [LEU, leucovorin] |  | 1.18 | 0.82 | 0.96 | 0.79 | 1.3 | 0.94 |  |
| CCCCCCOc1ccc(Cc2cnc(N)nc2N)cc1 [compound 1] | 0.88 |  |  |  |  |  |  |  |
| NCCCNc1ccc(C(=O)NC(CCC(=O)O)C(=O)O)cc1 (stereo not drawn) [compound 7] |  | 1.2 | 1 | 1.06 | 0.86 | 1.54 | 0.91 |  |
| CCCCCCOc1cccc(Cc2cnc(N)nc2N)c1 [compound 2] | 1 |  |  |  |  |  |  |  |
